Results on one compound are retold here after PMC3928003 (Cardiovascular Research, 2013).

SMILES strings stand for the structures.

In this experiment the target is T1, 5-lipoxygenase (5-LO) (Homo sapiens, UniProt P09917).
T1 sequence (P09917 1-674): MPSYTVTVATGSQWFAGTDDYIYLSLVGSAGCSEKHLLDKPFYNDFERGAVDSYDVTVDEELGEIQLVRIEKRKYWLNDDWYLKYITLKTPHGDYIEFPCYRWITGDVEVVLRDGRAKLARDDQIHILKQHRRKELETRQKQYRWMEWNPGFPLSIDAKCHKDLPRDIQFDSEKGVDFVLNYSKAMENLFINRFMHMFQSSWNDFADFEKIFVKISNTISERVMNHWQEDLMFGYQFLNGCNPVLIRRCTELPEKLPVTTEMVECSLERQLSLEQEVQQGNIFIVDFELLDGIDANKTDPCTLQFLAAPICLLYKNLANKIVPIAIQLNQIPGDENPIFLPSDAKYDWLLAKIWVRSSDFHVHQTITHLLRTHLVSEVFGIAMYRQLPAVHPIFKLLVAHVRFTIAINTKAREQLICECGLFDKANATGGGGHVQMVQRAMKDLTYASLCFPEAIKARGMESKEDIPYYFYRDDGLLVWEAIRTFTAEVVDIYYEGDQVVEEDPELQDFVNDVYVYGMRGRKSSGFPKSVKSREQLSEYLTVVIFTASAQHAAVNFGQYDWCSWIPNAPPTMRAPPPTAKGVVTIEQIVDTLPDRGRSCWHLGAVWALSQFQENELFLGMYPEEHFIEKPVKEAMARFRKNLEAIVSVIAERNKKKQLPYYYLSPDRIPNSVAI
Description: cell-free 5-LO activity assay with arachidonic acid, products by HPLC. The format is biochemical.

`O=C1Nc2ccccc2/C1=C1/Nc2ccccc2/C1=N\O` [I3MO, Indirubin-3′-monoxime] displayed an IC50 of 7.8 to 10 µM.

The IC50 is the point on the concentration scale where inhibition reaches its midpoint. A lower IC50 goes with greater potency.
